Counter-ions that a name gives are not always drawn.
target: T1, human vasopressin V1b receptor (Homo sapiens, UniProt P47901); experiment: Vasopressin V1b receptor binding assay; conditions: membranes from CHO-K1 cells with stably expressed human V1b receptors, displacement of 1.5 nM 3H-AVP
T1 construct: expressed in transfected cells; host or cells: CHO-K1 (cell line hV1b-3H2_CHO), membrane preparation
T1 sequence (P47901 1-424): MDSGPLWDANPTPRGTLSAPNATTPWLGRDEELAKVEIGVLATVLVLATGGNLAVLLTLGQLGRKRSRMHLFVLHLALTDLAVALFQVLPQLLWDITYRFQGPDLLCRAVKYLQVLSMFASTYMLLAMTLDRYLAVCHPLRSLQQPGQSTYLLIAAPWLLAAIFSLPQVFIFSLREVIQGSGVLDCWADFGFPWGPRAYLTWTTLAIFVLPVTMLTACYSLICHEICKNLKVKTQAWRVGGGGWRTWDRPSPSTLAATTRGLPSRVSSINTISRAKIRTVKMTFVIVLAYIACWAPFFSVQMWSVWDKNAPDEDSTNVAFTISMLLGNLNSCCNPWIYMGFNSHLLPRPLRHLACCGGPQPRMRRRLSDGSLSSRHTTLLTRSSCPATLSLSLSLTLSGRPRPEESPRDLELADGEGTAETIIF
Description: Vasopressin V1b Receptor Binding Assay:
The test substances were dissolved in a concentration of 10^−2 M in DMSO (dimethyl sulfoxide) and further diluted to 5×10^−4 M to 5×10^−9 M in DMSO. This series of DMSO predilutions was diluted 1:10 with assay buffer. The substance concentration was again diluted 1:5 in the assay mixture (2% DMSO in the mixture).
The membrane pellet was again homogenized and centrifuged as described and then taken up in 50 mM Tris-HCl, pH 7.4, homogenized and stored in aliquots frozen in liquid nitrogen at −190° C.
The incubation buffer was: 50 mM Tris, 10 mM MgCl2, 0.1% BSA, pH 7.4.
The nonspecific binding was determined with 1 uM AVP (Bachem # H1780). All determinations were carried out as triplicate determinations. After incubation (60 minutes at room temperature), the free radioligand was removed by vacuum filtration (Skatron cell harvester 7000) through Whatman GF/B glass fiber filter mats, and the filters were transferred into scintillation vials. The liquid scintillation measurement took place in a Tricarb model 2000 or 2200CA instrument (Packard). Conversion of the measured cpm into dpm was carried out with the aid of a standard quench series.
The binding parameters were calculated by nonlinear regression in SAS.

Structure (SMILES) | Ki [nM]
COc1ccc(S(=O)(=O)N2C(=O)C(c3cc(CN(C)C)ccc3OC)(N3CCC[C@H]3C(=O)N(C)C)c3cc(Cl)ccc32)c(OC)c1 (stereo partly drawn) [Example 24, (S)-1-[5-Chloro-1-(2,4-dimethoxybenzenesulfonyl)-3-(5-dimethylaminomethyl-2-methoxyphenyl)-2-oxo-2,3-dihydro-1H-indol-3-yl]pyrrolidine-2-dimethylcarboxamide, trifluoroacetic acid salt] | < 1
COc1ccc(S(=O)(=O)N2C(=O)C(c3cc(CN4CCCC4)ccc3OC)(N3CCC[C@H]3C(=O)N(C)C)c3cc(Cl)ccc32)c(OC)c1 (stereo partly drawn) [Example 25, (S)-1-[5-Chloro-1-(2,4-dimethoxybenzenesulfonyl)-3-(2-methoxy-5-pyrrolidin-1-yl-methylphenyl)-2-oxo-2,3-dihydro-1H-indol-3-yl]pyrrolidine-2-dimethylcarboxamide, trifluoroacetic acid salt] | < 1
COc1ccc(S(=O)(=O)N2C(=O)C(c3cc(CN4CCCCC4)ccc3OC)(N3CCC[C@H]3C(=O)N(C)C)c3cc(Cl)ccc32)c(OC)c1 (stereo partly drawn) [Example 26, (S)-1-[5-Chloro-1-(2,4-dimethoxybenzenesulfonyl)-3-(2-methoxy-5-piperidin-1-yl-methylphenyl)-2-oxo-2,3-dihydro-1H-indol-3-yl]pyrrolidin-2-dimethylcarboxamide trifluoroacetic acid salt] | < 1
COc1ccc(S(=O)(=O)N2C(=O)C(c3cc(CN4CCN(C)CC4)ccc3OC)(N3CCC[C@H]3C(=O)N(C)C)c3cc(Cl)ccc32)c(OC)c1 (stereo partly drawn) [Example 27, (S)-1-{5-Chloro-1-(2,4-dimethoxybenzenesulfonyl)-3-[2-methoxy-5-(4-methyl-piperazin-1-ylmethyl)phenyl]-2-oxo-2,3-dihydro-1H-indol-3-yl}pyrrolidine-2-dimethylcarboxamide, trifluoroacetic acid salt] | < 1
COc1ccc(S(=O)(=O)N2C(=O)C(c3cc(CN4CCOCC4)ccc3OC)(N3CCC[C@H]3C(=O)N(C)C)c3cc(Cl)ccc32)c(OC)c1 (stereo partly drawn) [Example 28, (S)-1-[5-Chloro-1-(2,4-dimethoxybenzenesulfonyl)-3-(2-methoxy-5-morpholin-4-yl-methylphenyl)-2-oxo-2,3-dihydro-1H-indol-3-yl]pyrrolidine-2-dimethylcarboxamide, trifluoroacetic acid salt] | 1 to 10
COc1ccc(S(=O)(=O)N2C(=O)C(c3cc(CN(C)CCN(C)C)ccc3OC)(N3CCC[C@H]3C(=O)N(C)C)c3cc(Cl)ccc32)c(OC)c1 (stereo partly drawn) [Example 29, (S)-1-[5-Chloro-1-(2,4-dimethoxybenzenesulfonyl)-3-(5-{[(2-dimethylaminoethyl)-methylamino]methyl}-2-methoxyphenyl)-2-oxo-2,3-dihydro-1H-indol-3-yl]pyrrolidine-2-dimethylcarboxamide, trifluoroacetic acid salt] | < 1
COc1ccc(S(=O)(=O)N2C(=O)C(c3cc(CN(C)CCCN(C)C)ccc3OC)(N3CCC[C@H]3C(=O)N(C)C)c3cc(Cl)ccc32)c(OC)c1 (stereo partly drawn) [Example 30, (S)-1-[5-Chloro-1-(2,4-dimethoxybenzenesulfonyl)-3-(5-{[(3-dimethylaminopropyl)-methylamino]methyl}-2-methoxyphenyl)-2-oxo-2,3-dihydro-1H-indol-3-yl]pyrrolidine-2-dimethylcarboxamide, trifluoroacetic acid salt] | < 1
COCCN(C)Cc1ccc(C2(N3CCC[C@H]3C(=O)N(C)C)C(=O)N(S(=O)(=O)c3ccc(OC)cc3OC)c3ccc(Cl)cc32)c(OC)c1 (stereo partly drawn) [Example 31, (S)-1-[5-Chloro-1-(2,4-dimethoxybenzenesulfonyl)-3-(2-methoxy-4-{[(2-methoxy-ethyl)methylamino]methyl}phenyl)-2-oxo-2,3-dihydro-1H-indol-3-yl]pyrrolidine-2-dimethylcarboxamide] | 1 to 10
COCCN(C)Cc1ccc(OC)c(C2(N3CCC[C@H]3C(=O)N(C)C)C(=O)N(S(=O)(=O)c3ccc(OC)cc3)c3ccc(Cl)cc32)c1 (stereo partly drawn) [Example 32, (S)-1-[5-Chloro-1-(4-methoxybenzenesulfonyl)-3-(2-methoxy-5-{[(2-methoxyethyl)-methylamino]methyl}phenyl)-2-oxo-2,3-dihydro-1H-indol-3-yl]-pyrrolidine-2-dimethyl-carboxamide, trifluoroacetic acid salt] | < 1
COCCN(C)Cc1ccc(OC)c(C2(N3CCC[C@H]3C(=O)N(C)C)C(=O)N(S(=O)(=O)c3ccc(OC)cc3OC)c3ccc(Cl)cc32)c1 (stereo partly drawn) [Example 33, (S)-1-[5-Chloro-1-(2,4-dimethoxybenzenesulfonyl)-3-(2-methoxy-5-{[(2-methoxy-ethyl)methylamino]methyl}phenyl)-2-oxo-2,3-dihydro-1H-indol-3-yl]pyrrolidine-2-dimethylcarboxamide, trifluoroacetic acid salt] | < 1
COc1ccc(S(=O)(=O)N2C(=O)C(c3ccc(CN4CCN(C)CC4)cc3OC)(N3CCC[C@H]3C(=O)N(C)C)c3cc(Cl)ccc32)cc1 (stereo partly drawn) [Example 69, (S)-1-{5-Chloro-1-(4-methoxybenzenesulfonyl)-3-[2-methoxy-4-(4-methylpiperazin-1-ylmethyl)phenyl]-2-oxo-2,3-dihydro-1H-indol-3-yl}pyrrolidine-2-dimethylcarboxamide, trifluoroacetic acid salt] | < 1
COc1ccc(S(=O)(=O)N2C(=O)C(c3ccc(CN(C)C)cc3OC)(N3CCC[C@H]3C(=O)N(C)C)c3cc(Cl)ccc32)cc1 (stereo partly drawn) [Example 70, (S)-1-[5-Chloro-3-(4-dimethylaminomethyl-2-methoxyphenyl)-1-(4-methoxy-benzenesulfonyl)-2-oxo-2,3-dihydro-1H-indol-3-yl]pyrrolidine-2-dimethylcarboxamide, trifluoroacetic acid salt] | < 1
COc1ccc(S(=O)(=O)N2C(=O)C(c3ccc(CN4CCOCC4)cc3OC)(N3CCC[C@H]3C(=O)N(C)C)c3cc(Cl)ccc32)cc1 (stereo partly drawn) [Example 71, (S)-1-[5-Chloro-1-(4-methoxybenzenesulfonyl)-3-(2-methoxy-4-morpholin-4-yl-methylphenyl)-2-oxo-2,3-dihydro-1H-indol-3-yl]pyrrolidine-2-dimethylcarboxamide, trifluoroacetic acid salt] | < 1
COc1cc(CN(C)C)ccc1C1(N2CCC[C@H]2C(=O)N(C)C)C(=O)N(S(=O)(=O)c2ccc(C#N)cc2)c2ccc(Cl)cc21 (stereo partly drawn) [Example 72, (S)-1-[5-Chloro-1-(4-cyanobenzenesulfonyl)-3-(4-dimethylaminomethyl-2-methoxy-phenyl)-2-oxo-2,3-dihydro-1H-indol-3-yl]pyrrolidine-2-dimethylcarboxamide, trifluoroacetic acid salt] | 1 to 10
COc1cc(CN(C)C)ccc1C1(N2CCC[C@H]2C(=O)N(C)C)C(=O)N(S(=O)(=O)c2ccc(F)cc2)c2ccc(Cl)cc21 (stereo partly drawn) [Example 73, (S)-1-[5-Chloro-3-(4-dimethylaminomethyl-2-methoxyphenyl)-1-(4-fluorobenzene-sulfonyl)-2-oxo-2,3-dihydro-1H-indol-3-yl]pyrrolidine-2-dimethylcarboxamide, trifluoroacetic acid salt] | 1 to 10
